Results as given in patent publication US7723301B2, “Pharmaceutical compositions comprising an anti-teratogenic compound and applications of the same” (The Board of Trustees of the University of Arkansas, priority 2007, dated 2010).

What was measured:
chicken embryos = assay: Thalidomide-induced limb truncations and microphthalmia in chicken embryos; assay type: in vivo
Experimental: Fertilized eggs were purchased from Deindl GmbH, Rietberg-Varensell. They were incubated at 38° C. in a humidified incubator, windowed after one day and staged according to Hamburger and Hamilton (HH stage). Racemic thalidomide (Celgene), thalidomide enantiomers or phthalimide (Sigma) were dissolved in DMSO at 5 mg/ml and further diluted in PBS. Embryos were exposed to drugs by dropping 15 μg-3 mg thalidomide or phthalimide per kg egg weight (about 1-200 μg per embryo) in 50 μl DMSO/PBS as a single dose at HH stages 0-13 onto the embryo. Thalidomide (50 μg) or phthalimide (50 μg) in 10 μl DMSO was injected into the extra-embryonic blood vessels of HH 19 stage embryos. […] Recombinant Noggin, Dkk1 specific goat IgG (R&D Systems) or serum of non-immunized goats (Sigma) was dissolved in 0.1% BSA/0.01% Fast Green/PBS. Noggin (10 or 100 ng), Dkk1 specific goat IgG (5 or 50 ng) or serum of non-immunized goats (50 ng) was applied to a single embryo at HH stages 17-19 by injecting a 10 μl solution through the extra-embryonic membranes.
The morphology of the limbs was studied in specimens fixed in 5% trichloroacetic acid and stained for cartilage with alcian green as described (3).

[1] = tested on: Bmp4 and Dkk1 expression in PLBCs; assay: sqRT-PCR of Bmp4 and Dkk1 expression in PLBCs; assay type: cell-based, chicken; conditions: 10 μg/ml, six hours
Experimental: (§1) Primary limb bud cells (PLBCs) were isolated from 60 pooled wing and hindlimb buds of HH stages 23/24 embryos. Fibroblasts were gained from HH stage 34 chicken embryos or from 13.5 d.p.c. mouse embryos. Human embryonic fibroblasts were provided by Matthias Maass (2). Before adding reagents, all cell types were cultured for 16 hours in D-MEM (Gibco) plus 10% fetal calf serum (FCS) and 2% chicken serum. Treatment with thalidomide, phthalimide, recombinant human (rh) BMP4 (300 ng/ml; R&D Systems), juglone (5 μM; Sigma), recombinant mouse Noggin (30, 300, 1000 ng/ml in FIG. 4B; 300 ng/ml in FIGS. 4C and 6A), anti-human-DKK1 antibody (35, 350 and 1000 ng/ml in FIG. 4B; 350 ng/ml in FIGS. 4C and 6A), LiCl (3, 30, 60 mM in FIG. 4B; 30 mM in FIGS. 4C, 6A and 6C) and/or (2Z,3E)-6-Bromoindirubin-3-oxime (BIO, Gsk3-Inhibitor IX; 50, 500, 1000 nM in FIG. 4B; 500 nM in FIG. 6A; 50 and 500 nM in FIG. 6C; Calbiochem) were performed in Optimem1 (Invitrogen) plus 1% FCS. Unless otherwise noted, all treatments with thalidomide and rh-BMP4 and associated controls were done for six hours. Inhibitors were applied once at the beginning of incubation with the exception of LiCl that was added 150 minutes before harvesting the cells for further analyses. Pre-treatment with phenyl-N-t-butylnitrone (PBN; 2 mM; Sigma) was performed for one hour. Incubations with juglone were performed for two hours, if applicable, after a pre-treatment with PBN, Noggin, anti-Dkk1 antibody, LiCl or Gsk3-Inhibitor IX for one hour.
RNA isolation, semi-quantitative RT-PCRs and whole mount in situ hybridizations were performed according to standard protocols that are well known within the art. RNA was isolated using TRIZOL (Gibco BRL) followed by DNAseI digestion. First strand synthesis was carried out with the Expand RT System (Roche) according to the manufacturer's instructions. PCR amplification was carried out primers and conditions within the knowledge of a person having skill in the relevant art. Quantifications were performed using NIH Image 1.62.

[2] = tested on: Bmp4 and Dkk1 expression in MEFs; assay: sqRT-PCR of Bmp4 and Dkk1 expression in MEFs; assay type: cell-based, mouse; conditions: 10 μg/ml, six hours
Experimental: as §1, with “Inhibitors were applied once at the beginning of incubation with the exception of LiCl that was added 150 minutes before harvesting the cells for further analyses. Pre-treatment with phenyl-N-t-butylnitrone (PBN; 2 mM; Sigma) was performed for one hour. Incubations with juglone were performed for two hours, if applicable, after a pre-treatment with PBN, Noggin, anti-Dkk1 antibody, LiCl or Gsk3-Inhibitor IX for one hour.” left out
RNA isolation, semi-quantitative RT-PCRs and whole mount in situ hybridizations were performed according to standard protocols that are well known within the art. […] Quantifications were performed using NIH Image 1.62.

Wnt/β-catenin signaling = assay: TOPflash luciferase reporter assay in CEFs; assay type: cell-based, chicken; conditions: Wnt3a-conditioned medium, 24 hours
Experimental: Plasmids with wild type (TOPflash) or mutated (FOPflash) LEF/TCF binding sites (5) upstream of a luciferase reporter gene were transiently transfected into CEFs using Lipofectamine (Invitrogen). Following transfection for 24 hours, the cells were exposed to Wnt3a-conditioned medium or to control medium (6) with or without thalidomide or recombinant human DKK1 (150 ng/ml, R&D Biosystems) for 24 hours prior to luciferase assay. Values were normalized for transfection efficiency by co-transfection with a pSV-β-galactosidase vector and for the number of living cells. Luciferase activity was measured using the Dual-Light System (Applied Biosystems).

[3] = chicken, in vivo, 7 day of incubation

O=C1CCC(N2C(=O)c3ccccc3C2=O)C(=O)N1 (racemic) [thalidomide, 2-(2,6-dioxo-3-piperidyl)isoindole-1,3-dione]
embryonic lethality in comparison to solvent controls (chicken embryos; 750 μg/kg egg weight, HH stages 4/5, first seven days): did not significantly increase embryonic lethality
EC50 for induction of limb and eye defects (chicken embryos; applied at HH stages 4/5): 50 μg/kg egg weight
dose inducing a maximum of limb truncations and microphthalmia (chicken embryos; chicken, in vivo): 750 μg/kg egg weight
other limb malformations (fusion at the level of the metacarpal cartilage, abducted legs), frequency in total (chicken embryos; chicken, in vivo): observed, but at a much lower frequency (in total 4%, data not shown).
embryos showing both limb abnormalities and microphthalmia (chicken embryos; [3]): about 5%
embryos with uni- or bilateral microphthalmia (chicken embryos; [3]): 21%
effect of increasing the amount up to 3 mg/kg egg weight (chicken embryos; in vivo): neither influenced the quality nor the quantity of limb truncations or microphthalmia
frequency of limb truncations and microphthalmia on application at later stages (chicken embryos; in vivo): clearly reduced the frequency of limb truncations and microphthalmia
expression of Bmp4 and Dkk1 in PLBCs [1]: induced the expression
expression of Bmp4 and Dkk1 in MEFs [2]: not in MEFs
effect on Wnt3a-induced TOPflash activity (Wnt/β-catenin signaling): clearly counteracted
